Values of other authors in patent US20110287437A1, “ASSAYS TO PREDICT CARDIOTOXICITY” (priority 2010, published 2011).

Tests used:
[1] = assessment from public literature and internal data; training set N=19
[2] = treatment of patients; prescribing information

Compound	Cardiotoxicity [1]	Cardiotoxicity / adverse cardiac effects reported [2]
COc1ccc2c(O[C@@H]3C[C@H]4C(=O)N[C@]5(C(=O)O)C[C@H]5/C=C\CCCCC[C@H](NC(=O)OC5CCCC5)C(=O)N4C3)cc(-c3csc(NC(C)C)n3)nc2c1 [BILN 2061]	Positive	–
COc1cccc2c1C(=O)c1c(O)c3c(c(O)c1C2=O)C[C@@](O)(C(=O)CO)C[C@@H]3O[C@H]1C[C@H](N)[C@H](O)[C@H](C)O1 [Doxorubicin]	Positive	–
CO[C@H]1C[C@@H]2CC[C@@H](C)[C@@](O)(O2)C(=O)C(=O)N2CCCC[C@H]2C(=O)O[C@H]([C@H](C)C[C@@H]2CC[C@@H](OCCO)[C@H](OC)C2)CC(=O)[C@H](C)/C=C(\C)[C@@H](O)[C@@H](OC)C(=O)[C@H](C)C[C@H](C)/C=C/C=C/C=C/1C [Everolimus]	Positive	–
COc1cc2ncnc(Nc3ccc(F)c(Cl)c3)c2cc1OCCCN1CCOCC1 [Iressa]	Negative	–
CNC(=O)c1cc(Oc2ccc(NC(=O)Nc3ccc(Cl)c(C(F)(F)F)c3)cc2)ccn1 [Nexavar, sorafenib]	Positive	mentioned in the prescribing information
Cc1cn(-c2cc(NC(=O)c3ccc(C)c(Nc4nccc(-c5cccnc5)n4)c3)cc(C(F)(F)F)c2)cn1 [Nilotinib]	Positive	–
Cc1nc(Nc2ncc(C(=O)Nc3c(C)cccc3Cl)s2)cc(N2CCN(CCO)CC2)n1 [Sprycel, dasatinib]	Positive	mentioned in the prescribing information
CCN(CC)CCNC(=O)c1c(C)[nH]c(/C=C2\C(=O)Nc3ccc(F)cc32)c1C [Sutent, sunitinib]	Positive	mentioned in the prescribing information
C#Cc1cccc(Nc2ncnc3cc(OCCOC)c(OCCOC)cc23)c1 [Tarceva]	Negative	–
CS(=O)(=O)CCNCc1ccc(-c2ccc3ncnc(Nc4ccc(OCc5cccc(F)c5)c(Cl)c4)c3c2)o1 [Tykerb]	Negative	–
COc1cc2c(Nc3ccc(Br)cc3F)ncnc2cc1OCC1CCN(C)CC1 [Zactima]	Positive	–
bevacizumab: bevacizumab (Avastin)	–	mentioned in the prescribing information
